Source: ChEMBL document CHEMBL1201862, “PubChem BioAssay data set” (2004)
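The compound was tested at five concentrations on cells cultured in 96-well plates, with a 48-hour exposure period. GI50 is the concentration that inhibits growth by half.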 The source made the active and inactive calls. No stated cut-off is given here; in the data, active = GI50 up to about 1.1 µM and inactive = higher.

How the values were obtained:
Experiment in all cases: NCI anticancer screen, dose series, 48 h
[1] = tested on: NCI-H522
[2] = tested on: MDA-MB-231
[3] = tested on: MOLT-4
[4] = tested on: EKVX
[5] = tested on: 786-0
[6] = tested on: T47D
[7] = tested on: KM12
[8] = tested on: HT-29
[9] = tested on: COLO 205
[10] = tested on: TK-10
[11] = tested on: SF-268
[12] = tested on: HOP-62
[13] = tested on: Malme-3M
[14] = tested on: SF-295
[15] = tested on: SK-MEL-2
[16] = tested on: UACC-62
[17] = tested on: A498
[18] = tested on: HCC 2998
[19] = tested on: RXF 393
[20] = tested on: HOP-92
[21] = tested on: NCI-H23
[22] = tested on: BT-549
[23] = tested on: NCI-H460
[24] = tested on: K562
[25] = tested on: HCT-116
[26] = tested on: PC-3
[27] = tested on: OVCAR-5
[28] = tested on: MCF7
[29] = tested on: NCI-H226
[30] = tested on: NCI/ADR-RES
[31] = tested on: ACHN
[32] = tested on: U-251
[33] = tested on: OVCAR-3
[34] = tested on: MDA-MB-435
[35] = tested on: SNB-75
[36] = tested on: SW-620
[37] = tested on: HCT-15
[38] = tested on: M14
[39] = tested on: SK-OV-3
[40] = tested on: CAKI-1
[41] = tested on: OVCAR-4
[42] = tested on: SK-MEL-5
[43] = tested on: A549
[44] = tested on: HL-60
[45] = tested on: SF-539
[46] = tested on: UO-31
[47] = tested on: RPMI-8226
[48] = tested on: SR
[49] = tested on: SK-MEL-28
[50] = tested on: SNB-19
[51] = tested on: DU-145
[52] = tested on: LOX IMVI
[53] = tested on: IGROV-1
[54] = tested on: MDA-N
[55] = tested on: SN12C
[56] = tested on: Hs-578T
[57] = tested on: UACC-257
[58] = tested on: CCRF-CEM
[59] = tested on: OVCAR-8

COc1ccc(C23OCC(Cc4cc(OC)c(OC)cc42)C3COC(C)=O)cc1OC (stereo not drawn)
GI50 [1]: > 100 µM (inactive) | GI50 [2]: > 100 µM (inactive) | GI50 [3]: > 100 µM (inactive) | GI50 [4]: > 100 µM (inactive) | GI50 [5]: > 100 µM (inactive) | GI50 [6]: > 100 µM (inactive) | GI50 [7]: > 100 µM (inactive) | GI50 [8]: > 100 µM (inactive) | GI50 [9]: > 100 µM (inactive) | GI50 [10]: > 100 µM (inactive) | GI50 [11]: > 100 µM (inactive) | GI50 [12]: > 100 µM (inactive) | GI50 [13]: > 100 µM (inactive) | GI50 [14]: > 100 µM (inactive) | GI50 [15]: > 100 µM (inactive) | GI50 [16]: > 100 µM (inactive) | GI50 [17]: > 100 µM (inactive) | GI50 [18]: > 100 µM (inactive) | GI50 [19]: > 100 µM (inactive) | GI50 [20]: > 100 µM (inactive) | GI50 [21]: 56.1 µM (inactive) | GI50 [22]: > 100 µM (inactive) | GI50 [23]: > 100 µM (inactive) | GI50 [24]: > 100 µM (inactive) | GI50 [25]: > 100 µM (inactive) | GI50 [26]: > 100 µM (inactive) | GI50 [27]: > 100 µM (inactive) | GI50 [28]: > 100 µM (inactive) | GI50 [29]: 5.66 µM (inactive) | GI50 [30]: 25.5 µM (inactive) | GI50 [31]: > 100 µM (inactive) | GI50 [32]: > 100 µM (inactive) | GI50 [33]: > 100 µM (inactive) | GI50 [34]: > 100 µM (inactive) | GI50 [35]: > 100 µM (inactive) | GI50 [36]: > 100 µM (inactive) | GI50 [37]: > 100 µM | GI50 [38]: > 100 µM (inactive) | GI50 [39]: > 100 µM (inactive) | GI50 [40]: > 100 µM (inactive) | GI50 [41]: > 100 µM (inactive) | GI50 [42]: 20.7 µM (inactive) | GI50 [43]: > 100 µM (inactive) | GI50 [44]: > 100 µM (inactive) | GI50 [45]: > 100 µM (inactive) | GI50 [46]: > 100 µM (inactive) | GI50 [47]: > 100 µM (inactive) | GI50 [48]: 27.4 µM (inactive) | GI50 [49]: > 100 µM (inactive) | GI50 [50]: > 100 µM (inactive) | GI50 [51]: > 100 µM (inactive) | GI50 [52]: > 100 µM (inactive)

COc1ccc(CCn2cnc3ccccc32)cc1
GI50 [1]: > 100 µM (inactive) | GI50 [2]: > 100 µM (inactive) | GI50 [3]: > 100 µM (inactive) | GI50 [4]: > 100 µM (inactive) | GI50 [5]: > 100 µM (inactive) | GI50 [53]: > 100 µM (inactive) | GI50 [7]: > 100 µM (inactive) | GI50 [54]: > 100 µM (inactive) | GI50 [8]: > 100 µM (inactive) | GI50 [9]: > 100 µM (inactive) | GI50 [10]: > 100 µM (inactive) | GI50 [11]: > 100 µM (inactive) | GI50 [55]: > 100 µM (inactive) | GI50 [12]: > 100 µM (inactive) | GI50 [13]: > 100 µM (inactive) | GI50 [14]: > 100 µM (inactive) | GI50 [56]: > 100 µM (inactive) | GI50 [57]: > 100 µM (inactive) | GI50 [15]: > 100 µM (inactive) | GI50 [16]: > 100 µM (inactive) | GI50 [17]: > 100 µM (inactive) | GI50 [18]: > 100 µM (inactive) | GI50 [19]: > 100 µM (inactive) | GI50 [20]: > 100 µM (inactive) | GI50 [21]: > 100 µM (inactive) | GI50 [22]: > 100 µM (inactive) | GI50 [23]: > 100 µM (inactive) | GI50 [24]: > 100 µM (inactive) | GI50 [25]: > 100 µM (inactive) | GI50 [26]: > 100 µM (inactive) | GI50 [27]: > 100 µM (inactive) | GI50 [28]: > 100 µM (inactive) | GI50 [29]: > 100 µM (inactive) | GI50 [30]: > 100 µM (inactive) | GI50 [31]: > 100 µM (inactive) | GI50 [32]: > 100 µM (inactive) | GI50 [58]: > 100 µM (inactive) | GI50 [33]: > 100 µM (inactive) | GI50 [34]: > 100 µM (inactive) | GI50 [35]: > 100 µM (inactive) | GI50 [59]: > 100 µM (inactive) | GI50 [36]: > 100 µM (inactive) | GI50 [37]: > 100 µM | GI50 [38]: > 100 µM (inactive) | GI50 [39]: > 100 µM (inactive) | GI50 [40]: > 100 µM (inactive) | GI50 [41]: > 100 µM (inactive) | GI50 [42]: > 100 µM (inactive) | GI50 [43]: > 100 µM (inactive) | GI50 [44]: > 100 µM (inactive) | GI50 [45]: > 100 µM (inactive) | GI50 [46]: > 100 µM (inactive) | GI50 [47]: > 100 µM (inactive) | GI50 [48]: > 100 µM (inactive) | GI50 [50]: > 100 µM (inactive) | GI50 [51]: > 100 µM (inactive)
